Reference: patent US20240308996A1, “PYRIDOPYRIDINES AND DERIVATIVES THEREOF AS SELECTIVE KINASE INHIBITORS” (University of Sharjah, priority 2023, published 2024)

Tests used:
Format in all cases: cell-based
SK-OV-3 = assay: NCI-60 cell line panel: SK-OV-3; conditions: Ovarian Cancer; for IC50: Homo sapiens; for TGI: total growth inhibition
Protocol: (§1) It was carried out at the NCI, Bethesda, MD, USA, utilizing their standard protocol.

MDA-MB-231/ATCC = assay: NCI-60 cell line panel: MDA-MB-231/ATCC; conditions: Breast Cancer; for TGI: total growth inhibition; for IC50: Homo sapiens
Protocol: as §1

SF-268 = assay: NCI-60 cell line panel: SF-268; conditions: CNS Cancer; for TGI: total growth inhibition; for IC50: Homo sapiens
Protocol: as §1

OVCAR-5 = assay: NCI-60 cell line panel: OVCAR-5; conditions: Ovarian Cancer; for IC50: Homo sapiens; for TGI: total growth inhibition
Protocol: as §1

ACHN = assay: NCI-60 cell line panel: ACHN; conditions: Renal Cancer; for IC50: Homo sapiens; for TGI: total growth inhibition
Protocol: as §1

LOX IMVI = assay: NCI-60 cell line panel: LOX IMVI; conditions: Melanoma; for IC50: Homo sapiens; for TGI: total growth inhibition
Protocol: as §1

A549/ATCC = assay: NCI-60 cell line panel: A549/ATCC; conditions: Non-Small Cell Lung Cancer; for IC50: Homo sapiens; for TGI: total growth inhibition
Protocol: as §1

MOLT-4 = assay: NCI-60 cell line panel: MOLT-4; design: TGI: unit not given here; conditions: Leukemia; for IC50: Homo sapiens; for TGI: total growth inhibition
Protocol: as §1

SF-539 = assay: NCI-60 cell line panel: SF-539; conditions: CNS Cancer; for TGI: total growth inhibition; for IC50: Homo sapiens
Protocol: as §1

M14 = assay: NCI-60 cell line panel: M14; conditions: Melanoma; for IC50: Homo sapiens; for TGI: total growth inhibition
Protocol: as §1

SW-620 = assay: NCI-60 cell line panel: SW-620; conditions: Colon Cancer; for TGI: total growth inhibition; for IC50: Homo sapiens
Protocol: as §1

EKVX = assay: NCI-60 cell line panel: EKVX; conditions: Non-Small Cell Lung Cancer; for IC50: Homo sapiens
Protocol: as §1

K-562 = assay: NCI-60 cell line panel: K-562; design: TGI: unit not given here; conditions: for IC50: Homo sapiens, K562, Leukemia; for TGI: Leukemia, total growth inhibition
Protocol: as §1

NCI-H322M = assay: NCI-60 cell line panel: NCI-H322M; conditions: Non-Small Cell Lung Cancer; for IC50: Homo sapiens; for TGI: total growth inhibition
Protocol: as §1

SR = assay: NCI-60 cell line panel: SR; conditions: Leukemia; for IC50: Homo sapiens; for TGI: total growth inhibition
Protocol: as §1

HT29 = assay: NCI-60 cell line panel: HT29; conditions: for TGI: Colon Cancer, total growth inhibition; for IC50: Homo sapiens, HT-29, Colon Cancer
Protocol: as §1

NCI-H522 = assay: NCI-60 cell line panel: NCI-H522; design: TGI: unit not given here; conditions: Non-Small Cell Lung Cancer; for IC50: Homo sapiens; for TGI: total growth inhibition
Protocol: as §1

RPMI-8226 = assay: NCI-60 cell line panel: RPMI-8226; conditions: Leukemia; for IC50: Homo sapiens; for TGI: total growth inhibition
Protocol: as §1

UO-31 = assay: NCI-60 cell line panel: UO-31; design: TGI: unit not given here; conditions: Renal Cancer; for IC50: Homo sapiens; for TGI: total growth inhibition
Protocol: as §1

Hep3B = assay: MTT assay, Hep3B HCC cell line; conditions: Homo sapiens, 48 h, mean of triplicate assays ± SEM
Protocol: Two HCC cell lines (Hep3B and HepG2) were used for screening the antiproliferative activity of the synthesized compounds. The cell lines were obtained from the European Collection of Cell Cultures (ECACC, UK) and maintained in Dulbecco's Modified Eagle Medium (DMEM: Sigma-Aldrich) supplemented with 10% fetal bovine serum (FBS) and 1% penicillin/streptomycin and incubated at 37° C. in a 5% CO2 air atmosphere. In addition, WI-38 normal cell line was used to investigate the safety of these compounds.
MTT assay was conducted to calculate the IC50 of the compounds following the reported procedure . Briefly, the cells were seeded in 96-well tissue culture plates with a density of 5×10^4 cells/well and incubated overnight at 37° C. in a 5% CO2 air atmosphere. […] DMSO was used as a negative control. After 48 h, the media were aspirated, and replaced with media containing 0.5 mg/mL of MTT tetrazolium dye (Sigma-Aldrich) for 2 h at 37° C. Finally, the media were removed and 200 μL of DMSO was added to solubilize the formazan crystals. Absorbance was then measured at 570 nm using Varioskan Flash multimode plate reader (Thermo Scientific, Massachusetts, USA).

NCI-H226 = assay: NCI-60 cell line panel: NCI-H226; conditions: Non-Small Cell Lung Cancer; for IC50: Homo sapiens; for TGI: total growth inhibition
Protocol: as §1

A498 = assay: NCI-60 cell line panel: A498; conditions: Renal Cancer; for IC50: Homo sapiens; for TGI: total growth inhibition
Protocol: as §1

SNB-75 = assay: NCI-60 cell line panel: SNB-75; design: TGI: unit not given here; conditions: CNS Cancer; for TGI: total growth inhibition; for IC50: Homo sapiens
Protocol: as §1

TK-10 = assay: NCI-60 cell line panel: TK-10; conditions: Renal Cancer; for IC50: Homo sapiens; for TGI: total growth inhibition
Protocol: as §1

SF-295 = assay: NCI-60 cell line panel: SF-295; conditions: CNS Cancer; for TGI: total growth inhibition, unit assumed; for IC50: Homo sapiens
Protocol: as §1

MALME-3M = assay: NCI-60 cell line panel: MALME-3M; conditions: Melanoma; for IC50: Homo sapiens; for TGI: total growth inhibition, in µM (unit assumed)
Protocol: as §1

U251 = assay: NCI-60 cell line panel: U251; design: TGI: unit not given here; conditions: for TGI: CNS Cancer, total growth inhibition; for IC50: Homo sapiens, U-251, CNS Cancer
Protocol: as §1

SK-MEL-2 = assay: NCI-60 cell line panel: SK-MEL-2; design: TGI: unit not given here; conditions: Melanoma; for IC50: Homo sapiens; for TGI: total growth inhibition
Protocol: as §1

T-47D = assay: NCI-60 cell line panel: T-47D; conditions: Breast Cancer; for TGI: total growth inhibition; for IC50: Homo sapiens, T47D
Protocol: as §1

SN12C = assay: NCI-60 cell line panel: SN12C; conditions: Renal Cancer; for IC50: Homo sapiens; for TGI: total growth inhibition
Protocol: as §1

OVCAR-3 = assay: NCI-60 cell line panel: OVCAR-3; conditions: Ovarian Cancer; for IC50: Homo sapiens; for TGI: total growth inhibition
Protocol: as §1

IGROV1 = assay: NCI-60 cell line panel: IGROV1; conditions: for IC50: Homo sapiens, IGROV-1, Ovarian Cancer; for TGI: Ovarian Cancer, total growth inhibition
Protocol: as §1

CNC(=O)c1cc(-c2ccc(NC(=O)Nc3ccc(N4CCN(C)CC4)c(C(F)(F)F)c3)cc2)nc2cccnc12 [Compound 13b, N-Methyl-2-(4-(3-(4-(4-methylpiperazin-1-yl)-3-(trifluoromethyl)phenyl)ureido)phenyl)-1,5-naphthyridine-4-carboxamide]
IC50 (SK-OV-3): 18.5 µM
TGI (SK-OV-3): 34.7 µM
TGI (MDA-MB-231/ATCC): 38.1 µM
IC50 (MDA-MB-231/ATCC): 17.5 µM
TGI (SF-268): 39.2 µM
IC50 (SF-268): 17.5 µM
IC50 (OVCAR-5): 15.6 µM
TGI (OVCAR-5): 29 µM
IC50 (ACHN): 15.5 µM
TGI (ACHN): 28.9 µM
IC50 (LOX IMVI): 660 nM
TGI (LOX IMVI): 24.5 µM
IC50 (A549/ATCC): 10.9 µM
TGI (A549/ATCC): 24.3 µM
IC50 (MOLT-4): 2790 nM
TGI (MOLT-4): 14.9
TGI (SF-539): 26.5 µM
IC50 (SF-539): 13.6 µM
IC50 (M14): 1790 nM
TGI (M14): 3.71 µM
TGI (SW-620): 4.62 µM
IC50 (SW-620): 2110 nM
IC50 (EKVX): 17.9 µM
TGI (EKVX; total growth inhibition, in µM (unit assumed)): 33.9
IC50 (K-562): 2120 nM
TGI (K-562): 5.35
IC50 (NCI-H322M): 15.6 µM
TGI (NCI-H322M): 29.8 µM
IC50 (SR): 9.97 µM
TGI (SR): 44.6 µM
TGI (HT29): 4.19 µM
IC50 (HT29): 1920 nM
IC50 (NCI-H522): 16.5 µM
TGI (NCI-H522): 31.1
IC50 (RPMI-8226): 3.85 µM
TGI (RPMI-8226): 25 µM
IC50 (UO-31): 15.3 µM
TGI (UO-31): 29.2
IC50 (Hep3B): 2320 ± 20 nM
IC50 (NCI-H226): 18 µM
TGI (NCI-H226): 39.7 µM
IC50 (A498): ≥ 100000 nM
TGI (A498): 100 µM
TGI (SNB-75): 28.4
IC50 (SNB-75): 14.9 µM
IC50 (TK-10): 18.5 µM
TGI (TK-10): 33.2 µM
TGI (SF-295): 36.9 µM
IC50 (SF-295): 18 µM
IC50 (MALME-3M): 1680 nM
TGI (MALME-3M): 3.21
TGI (U251): 14.7
IC50 (U251): 3.43 µM
IC50 (SK-MEL-2): ≥ 100 µM
TGI (SK-MEL-2): 100
TGI (T-47D): 43.4 µM
IC50 (T-47D): 17 µM
IC50 (SN12C): 16.7 µM
TGI (SN12C): 34.7 µM
IC50 (OVCAR-3): 9.59 µM
TGI (OVCAR-3): 25.8 µM
IC50 (IGROV1): 17.7 µM
TGI (IGROV1): 36.6 µM

CCN1CCN(c2ccc(NC(=O)Nc3ccc(-c4cc(C(=O)NC)c5ncccc5n4)cc3)cc2C(F)(F)F)CC1 [Compound 13c, 2-(4-(3-(4-(4-Ethylpiperazin-1-yl)-3-(trifluoromethyl)phenyl)ureido)phenyl)-N-methyl-1,5-naphthyridine-4-carboxamide]
IC50 (SK-OV-3): 3.48 µM
TGI (SK-OV-3): 7.5 µM
TGI (MDA-MB-231/ATCC): 5.25 µM
IC50 (MDA-MB-231/ATCC): 2.78 µM
TGI (SF-268): 7 µM
IC50 (SF-268): 3.09 µM
IC50 (OVCAR-5): 2.82 µM
TGI (OVCAR-5): 5.23 µM
IC50 (ACHN): 2.39 µM
TGI (ACHN): 4.73 µM
IC50 (LOX IMVI): 670 nM
TGI (LOX IMVI): 2.66 µM
IC50 (A549/ATCC): 0.47 µM
TGI (A549/ATCC): 1.3 µM
IC50 (MOLT-4): 700 nM
TGI (MOLT-4): >18.0
TGI (SF-539): 4.57 µM
IC50 (SF-539): 2.3 µM
IC50 (M14): 400 nM
TGI (M14): 1.05 µM
TGI (SW-620): 0.62 µM
IC50 (SW-620): 310 nM
IC50 (EKVX): 2.94 µM
IC50 (K-562): 660 nM
TGI (K-562): >18.0
IC50 (NCI-H322M): 2.8 µM
TGI (NCI-H322M): 5.2 µM
IC50 (SR): 0.67 µM
TGI (SR): > 18 µM
TGI (HT29): 2.11 µM
IC50 (HT29): 530 nM
IC50 (NCI-H522): 3.23 µM
TGI (NCI-H522): 6.40
IC50 (RPMI-8226): 3.05 µM
TGI (RPMI-8226): > 18 µM
IC50 (UO-31): 2.71 µM
TGI (UO-31): 5.14
IC50 (NCI-H226): 2.7 µM
TGI (NCI-H226): 6.36 µM
IC50 (A498): 2740 nM
TGI (A498): 5.31 µM
TGI (SNB-75): 3.82
IC50 (SNB-75): 0.84 µM
IC50 (TK-10): 3.86 µM
TGI (TK-10): 6.63 µM
TGI (SF-295): 4.47 µM
IC50 (SF-295): 2.06 µM
IC50 (MALME-3M): 290 nM
TGI (MALME-3M): 0.53
TGI (U251): 5.53
IC50 (U251): 2.69 µM
IC50 (SK-MEL-2): 9.87 µM
TGI (SK-MEL-2): >18.0
TGI (T-47D): > 18 µM
IC50 (T-47D): 3.72 µM
IC50 (SN12C): 2.77 µM
TGI (SN12C): 5.3 µM
IC50 (OVCAR-3): 2.54 µM
TGI (OVCAR-3): 5.06 µM
IC50 (IGROV1): 3.01 µM
TGI (IGROV1): 5.61 µM
